Experiment [1] has as its system PC3. The experiment can be described thus: Inhibition of cancer cell growth as measured by cell number. The format is cell-based, human. The settings on record: PC3, 48 hours.
Source text: (§1) The cell lines were chosen since they overexpressed epidermal growth factor receptor (EGFR) (i.e. A431) or HER2/neu (SKBR3), or had little to no expression of the these receptors (SW620, LOX, MCF7).
In experiment [2] the test system is human epidermoid tumors (A431). Description: In vivo inhibition of the growth of human epidermoid tumors (A431) in mice. To be noted: for tumor growth was inhibited by: 100 mg/kg i.p. days 1-10. Also on record: species or system human tumor in BALB/c nu/nu female mice.
Procedure: Representative compounds of this invention (listed below) were evaluated in an in vivo standard pharmacological test procedure which measured its ability to inhibit the growth of human epidermoid tumors. […] BALB/c nu/nu female mice (Charles River, Wilmington, Mass.) were used in this in vivo standard pharmacological test procedure. […] When tumors attained a mass of between 100 and 150 mg, the mice were randomized into treatment groups (day zero). Mice were treated IP once a day either on days 1, 5, and 9 or on days 1 through 10 post staging with doses of either 80, 40 or 20 mg/kg/dose of the compound to be evaluated in 0.2% Klucel. Control animals received no drug. Tumor mass was determined every 7 days [(length X width^2)/2] for 28 days post staging. Relative tumor growth (Mean tumor mass on days 7, 14, 21, and 28 divided by the mean tumor mass on day zero) is determined for each treatment group.
Experiment [3] concerns SW620. The experiment can be described thus: Inhibition of cancer cell growth as measured by cell number. The settings on record: SW620, 48 hours, Table 8. The format is cell-based, human.
Source text: as §1
Experiment [4] relates to SKBR3. The description is as above. The format is cell-based, human. To be noted: SKBR3, 48 hours, Table 8.
Source text: as §1
The subject of experiment [5] is A431. The experiment is described as above. The format is cell-based, human. To be noted: A431, 48 hours, Table 8.
Source text: as §1

With `CCOc1cc2ncc(C#N)c(Nc3cccc(Br)c3)c2cc1OCC` [Example 47, 4-[(3-Bromophenyl)amino]-6,7-diethoxy-3-quinolinecarbonitrile], the “Inhibition of Cancer Cell Growth as Measured by Cell Number (IC50)” value in experiment [1] worked out at 0.11 µg/mL. For the same molecule, the “% T/C” value in experiment [2] (40 mg/kg/dose IP days 1-10, day 7) amounted to 69%; in experiment [2] (40 mg/kg/dose IP days 1-10, day 14), 74%; in experiment [2] (40 mg/kg/dose IP days 1-10, day 21) it was 116%; in experiment [2] (40 mg/kg/dose IP days 1-10, day 28), 136%; in experiment [2] (50 mg/kg/dose IP days 1-10, day 7) it was 44%; in experiment [2] (50 mg/kg/dose IP days 1-10, day 14), 55%. For the same molecule, the “% T/C” value in experiment [2] (50 mg/kg/dose IP days 1-10, day 21) came to 87%; in experiment [2] (50 mg/kg/dose IP days 1-10, day 28), 102%; in experiment [2] (100 mg/kg/dose IP days 1-10, day 7), 34%; in experiment [2] (100 mg/kg/dose IP days 1-10, day 14) it was 37%; in experiment [2] (100 mg/kg/dose IP days 1-10, day 21), 51%; in experiment [2] (100 mg/kg/dose IP days 1-10, day 28), 43%. Moreover, the “tumor growth was inhibited by” value in experiment [2] (day 7) is recorded as 66%; in experiment [2] (day 14), 63%; in experiment [2] (day 21), 49%; in experiment [2] (day 28) it was 57%. In addition, the “Tumor growth inhibition, dose dependence” value in experiment [2] (i.p. days 1-10) is listed as “appeared to be dose dependent”.
On to `CCCN(CC#CC(=O)Nc1ccc2ncc(C#N)c(Nc3cccc(Br)c3)c2c1)CCC` [Example 170, N-{4-[(3-Bromophenyl)amino]-3-cyano-6-quinolinyl}-4-dipropylamino-2-butynamide], for which the “Inhibition of Cancer Cell Growth as Measured by Cell Number (IC50)” value in experiment [3] worked out at 0.1 µg/mL; in experiment [4], 0.03 µg/mL; in experiment [5], 0.03 µg/mL.

The record behind these values is patent US6002008A, “Substituted 3-cyano quinolines” (American Cyanamid Company, priority 1998, dated 1999).
